This note sets out measurements from PMC12652428, “In Vitro and In Silico Evaluation of a Novel Multifunctional Cyclic Peptide with Antioxidant, Tyrosinase-Inhibitory, and Extracellular Matrix-Modulating Activities” (International Journal of Molecular Sciences, 2025).

Where a SMILES comes first, the peptide text is derived from it.

One assay concerns mushroom tyrosinase. Put plainly: Tyrosinase inhibition assay. It is filed as biochemical. The procedure: To assess tyrosinase inhibitory activity, serial dilutions of the synthesized peptide and the positive control, β-arbutin, were prepared. In a 96-well plate, 10 μL of sample solution was mixed with 110 μL of 0.10 M sodium phosphate buffer (pH 6.5), followed by the addition of 10 μL of mushroom tyrosinase solution (1500 U/mL) and 20 μL of 1.50 mM L-tyrosine. The reaction mixture was then incubated at 37 °C for 10 min. The absorbance was measured at an appropriate wavelength (475 nm) using a microplate reader and the percentage of tyrosinase inhibition was calculated using Equation (3).
Tyrosinase inhibition (%):(3) 100−b−b^′/a−a^′×100
(§1) a: Absorbance after reaction of stock solution.
(§2) b: Absorbance after reaction of sample solution.
a′, b′: Absorbance measured by substituting the buffer for mushroom tyrosinase.

A further assay deals with type I procollagen. Put plainly: Type I procollagen expression (ELISA) in human fibroblasts. It is filed as cell-based. The protocol:
ELISA was performed using a Type I Procollagen C-Peptide EIA Kit. Antibody-POD Conjugate solution (100 μL/well) was dispensed into the provided well strips, followed by the addition of 20 μL/well of standard solution or sample. After mixing, the plates were incubated at 37 °C for 3 h. Following incubation, the supernatants were discarded and wells were washed four times with wash buffer. Subsequently, 100 μL/well of Substrate Solution (TMBZ) was added and incubated at room temperature for 15 min, after which 100 μL/well of stop solution was added to terminate the reaction. Absorbance was measured at 450 nm using a multiplate reader. The expression levels of type I procollagen were compared and stimulation rate was calculated according to Equation (5).
Type I Procollagen Expression Promotion Rate (%):(5) 100−b/a×100
(§3) a: Expression of the corrected untreated group.
(§4) b: Expression of the corrected sample treatment group.
(§5) Protein content was measured using a Pierce BCA Protein Assay kit. After cell culture, 20 μL of the culture medium was mixed with 200 μL of the Pierce BCA Protein Assay reagent mixture and incubated at 37 °C for 30 min. The absorbance was then measured at 570 nm. The protein concentration was determined using an Albumin Standard as a reference.

Another assay concerns MMP-1. Put plainly: UV-induced MMP-1 expression inhibition (ELISA) in human dermal fibroblasts CCD-986sk. It counts as cell-based. The protocol:
To evaluate the inhibitory effect on MMP-1 expression, TGF-β1 (10 ng/mL) was used as the positive control. CCD-986sk cells were seeded into 24-well culture plates at a density of 1.5 × 10^4 cells/well and cultured for 24 h in IMDM supplemented with 10% FBS and 1% penicillin–streptomycin. The cells were then incubated in serum-free IMDM for 6 h to induce starvation, washed with 1 mL of DPBS, and irradiated with UV (5 J/cm^2). UV irradiation (5 J/cm^2) was performed under non-cytotoxic conditions previously reported to induce MMP-1 expression. The test samples were diluted in serum-free IMDM, applied to the cells, and incubated for 48 h.
MMP-1 Expression Inhibition (%):(4) 100−b/a×100
as §3, §4, §5
Background: In an ELISA, binding on a coated surface is turned into a signal by an enzyme label.

The nature of assay [1]: DPPH radical-scavenging assay. The protocol: To assess the antioxidant activity of the test samples, serial dilutions of the synthesized peptides were prepared, using ascorbic acid as a positive control. Each reaction mixture consisted of 12.5 μL of the sample solution, 50 μL of ethanol, and 62.5 μL of 0.10 mM DPPH solution. The mixtures were incubated for 30 min at 4 °C in the dark. After the reaction, the absorbance was measured at 520 nm using a multimode microplate reader. The free radical-scavenging activity (%) was calculated using Equation (2).
Radical-scavenging activity (%):(2) 100−b−b^′/a−a^′×100
as §1, §2
a′, b′: Absorbance measured by substituting the buffer for 0.10 mM DPPH.
(In general: DPPH is a stable violet radical that fades when it is reduced.)

As a reminder, the IC50 is the concentration that inhibits the measured activity by half. Take `N=C(N)NCCC[C@@H]1NC(=O)[C@H](CO)NC(=O)CNC(=O)[C@H](Cc2ccc(O)cc2)NC(=O)[C@H](CS)NC1=O` [CR5, cyclic CYGSR] (cyclo(CYGSR)): the tyrosinase inhibition rate with mushroom tyrosinase (800 μg/mL, L-tyrosine substrate, pH 6.5, 37 °C, 10 min, 475 nm) worked out at 97.79%. The “tyrosinase inhibition, concentration dependence” value in the assay on mushroom tyrosinase (12.50 to 800 μg/mL, p < 0.05) is “concentration-dependent inhibition”. Also, the “tyrosinase inhibition compared with β-arbutin” value in the assay with mushroom tyrosinase (comparable concentrations) is reported as “stronger tyrosinase inhibition than β-arbutin”. On mushroom tyrosinase (n = 3, L-tyrosine substrate, pH 6.5, 37 °C, 10 min, 475 nm, molar value printed beside 104.2 µg/mL), this molecule registered an IC50 of 184 ± 9.4 µM. Besides, the “tyrosinase inhibition IC50” value in the assay with mushroom tyrosinase (n = 3, L-tyrosine substrate, pH 6.5, 37 °C, 10 min, 475 nm, tested 12.50 to 800 μg/mL) is on record as 104.2 ± 5.3 µg/mL. The “type I procollagen expression, higher than positive control TGF-β1” value with type I procollagen (400 μg/mL, compared with TGF-β1) was “approximately 30.12%”. Also, in the assay on type I procollagen (400 μg/mL, human fibroblasts, ELISA (Procollagen Type I C-Peptide EIA), p < 0.05), the “increase in type I procollagen expression vs untreated control” value was “approximately 44.68%”. Further, the “type I procollagen increase compared with TGF-β1” value in the assay with type I procollagen (400 µg/mL, same experimental conditions) is reported as “stronger efficacy than TGF-β1”. Further, the “type I procollagen expression” value in the assay on type I procollagen (100–400 μg/mL, p < 0.05) was “promoted type I procollagen expression in a concentration-dependent manner”. In addition, the “inhibition of MMP-1 expression” value in the assay on MMP-1 (400 μg/mL, UV 5 J/cm^2, 48 h, CCD-986sk, ELISA, vs UV-treated control) amounted to 73.55%. The “MMP-1 inhibition compared with TGF-β1” value in the assay on MMP-1 (400 µg/mL, same experimental conditions, TGF-β1 10 ng/mL) is reported as “stronger efficacy than TGF-β1”. In the assay with MMP-1 (200–400 μg/mL, vs UV-treated control, p < 0.05), the “UV-induced MMP-1 expression” value is reported as “significantly reduced MMP-1 expression”. For the same molecule, the “MMP-1 expression inhibition IC50” value in the assay with MMP-1 (n = 5, UV 5 J/cm^2, 48 h, CCD-986sk, ELISA) turned out to be 261.3 ± 12.0 µg/mL. Further, in assay [1] (200 μg/mL, 30 min at 4 °C in the dark, 520 nm), the “DPPH radical scavenging rate” value was found to be 83.18%. The “DPPH scavenging, concentration dependence” value in assay [1] (3.13 to 200 μg/mL, p < 0.05) was “concentration-dependent scavenging effects”. For the same molecule, in assay [1] (concentrations above 25 μg/mL, 30 min at 4 °C in the dark, 520 nm), the “DPPH radical scavenging activity” value is “more than 50%”.
As to `OC[C@H]1O[C@@H](Oc2ccc(O)cc2)[C@H](O)[C@@H](O)[C@@H]1O` [β-arbutin, reference compound], the “tyrosinase inhibition IC50 (positive control)” value at mushroom tyrosinase (tested 31.25 to 500 μg/mL, L-tyrosine substrate, pH 6.5, 37 °C, 10 min, 475 nm) is 160.12 µg/mL.
